According to ChEMBL document CHEMBL2150933 (J Med Chem, 2012):
The source made the active and inactive calls. The rule behind the calls is not given here.

Columns and labels:
SK-MEL-2 [1] = assay: Antitumor activity against human SK-MEL-2 cells xenografted in athymic nu/nu Harlan mouse assessed as tumor growth inhibition at 8 mg/kg, ip administered Q4D for 3 days relative to control; type: functional, organism-based; design: dose 8 mg/kg
K562 = assay: Cytotoxicity against human K562 cells after 48 hrs by SRB assay; type: functional; conditions: K562, 48 h
EKVX = assay: Cytotoxicity against human EKVX cells after 48 hrs by SRB assay; type: functional
IGROV-1 = assay: Cytotoxicity against human IGROV1 cells after 48 hrs by SRB assay; type: functional; conditions: IGROV-1, 48 h, read-out: pGI50 (converted)
TK-10 = assay: Cytotoxicity against human TK10 cells after 48 hrs by SRB assay; type: functional; conditions: TK-10, 48 h
OVCAR-8 = assay: Cytotoxicity against human OVCAR8 cells after 48 hrs by SRB assay; type: functional; conditions: OVCAR-8, 48 h, read-out: pGI50 (converted)
HCT-15 = assay: Cytotoxicity against human HCT15 cells after 48 hrs by SRB assay; type: functional; conditions: HCT-15, 48 h
CAKI-1 = assay: Cytotoxicity against human Caki1 cells after 48 hrs by SRB assay; type: functional; conditions: CAKI-1, 48 h
UACC-257 = assay: Cytotoxicity against human UACC257 cells after 48 hrs by SRB assay; type: functional; conditions: UACC-257, 48 h
SNB-75 = assay: Cytotoxicity against human SNB75 cells after 48 hrs by SRB assay; type: functional; conditions: SNB-75, 48 h
NCI-H460 = assay: Cytotoxicity against human NCI-H460 cells after 48 hrs by SRB assay; type: functional; conditions: NCI-H460, 48 h
MDA-MB-435 = assay: Cytotoxicity against human MDA-MB-435 cells after 48 hrs by SRB assay; type: functional; conditions: MDA-MB-435, 48 h
NCI-H522 = assay: Cytotoxicity against human NCI-H522 cells after 48 hrs by SRB assay; type: functional; conditions: NCI-H522, 48 h
UO-31 = assay: Cytotoxicity against human UO31 cells after 48 hrs by SRB assay; type: functional; conditions: UO-31, 48 h
HCC 2998 = assay: Cytotoxicity against human HCC2998 cells after 48 hrs by SRB assay; type: functional; conditions: HCC 2998, 48 h
SF-295 = assay: Cytotoxicity against human SF295 cells after 48 hrs by SRB assay; type: functional; conditions: SF-295, 48 h, read-out: pGI50 (converted)
COLO 205 [2] = assay: Cytotoxicity against human COLO205 cells after 48 hrs by SRB assay; type: functional; conditions: COLO 205, 48 h
SK-MEL-2 [3] = assay: Cytotoxicity against human SK-MEL-2 cells after 48 hrs by SRB assay; type: functional; conditions: SK-MEL-2, 48 h
[4] = Cytotoxicity against human NCI-ADR-RES cells after 48 hrs by SRB assay; type: functional
SF-539 = assay: Cytotoxicity against human SF539 cells after 48 hrs by SRB assay; type: functional; conditions: SF-539, 48 h
RPMI-8226 = assay: Cytotoxicity against human RPMI8226 cells after 48 hrs by SRB assay; type: functional; conditions: RPMI-8226, 48 h
NCI-H23 = assay: Cytotoxicity against human NCI-H23 cells after 48 hrs by SRB assay; type: functional; conditions: NCI-H23, 48 h
M14 = assay: Cytotoxicity against human M14 cells after 48 hrs by SRB assay; type: functional; conditions: M14, 48 h
[5] = Toxicity in iv dosed CD1 mouse administered as single dose; type: organism-based; conditions: in vivo
OVCAR-3 = assay: Cytotoxicity against human OVCAR3 cells after 48 hrs by SRB assay; type: functional; conditions: OVCAR-3, 48 h
HOP-62 = assay: Cytotoxicity against human HOP62 cells after 48 hrs by SRB assay; type: functional; conditions: HOP-62, 48 h
Hs-578T = assay: Cytotoxicity against human Hs578T cells after 48 hrs by SRB assay; type: functional
MOLT-4 = assay: Cytotoxicity against human MOLT4 cells after 48 hrs by SRB assay; type: functional; conditions: MOLT-4, 48 h
UACC-62 = assay: Cytotoxicity against human UACC62 cells after 48 hrs by SRB assay; type: functional; conditions: UACC-62, 48 h
BXPC-3 = assay: Cytotoxicity against human BxPC3 cells after 72 hrs by MTT assay; type: functional; conditions: BXPC-3, 72 h
MCF7 = assay: Cytotoxicity against human MCF7 cells after 48 hrs by SRB assay; type: functional; conditions: MCF7, 48 h
BT-549 = assay: Cytotoxicity against human BT549 cells after 48 hrs by SRB assay; type: functional; conditions: BT-549, 48 h
[6] = Cytotoxicity against human 786-O cells after 48 hrs by SRB assay; type: functional; conditions: 786-0, 48 h
DU-145 = assay: Cytotoxicity against human DU145 cells after 48 hrs by SRB assay; type: functional; conditions: DU-145, 48 h
OVCAR-5 = assay: Cytotoxicity against human OVCAR5 cells after 48 hrs by SRB assay; type: functional; conditions: OVCAR-5, 48 h
SK-OV-3 = assay: Cytotoxicity against human SKOV3 cells after 48 hrs by SRB assay; type: functional; conditions: SK-OV-3, 48 h
OVCAR-4 = assay: Cytotoxicity against human OVCAR4 cells after 48 hrs by SRB assay; type: functional; conditions: OVCAR-4, 48 h
SN12C = assay: Cytotoxicity against human SN12C cells after 48 hrs by SRB assay; type: functional
T47D = assay: Cytotoxicity against human T47D cells after 48 hrs by SRB assay; type: functional
A549 [7] = assay: Cytotoxicity against human A549 cells after 48 hrs by SRB assay; type: functional; conditions: A549, 48 h, read-out: pGI50 (converted)
A549 [8] = assay: Cytotoxicity against human A549 cells after 72 hrs by MTT assay; type: functional; conditions: A549, 72 h
MDA-MB-468 = assay: Cytotoxicity against human MDA-MB-468 cells after 48 hrs by SRB assay; type: functional; conditions: MDA-MB-468, 48 h
SK-MEL-28 = assay: Cytotoxicity against human SK-MEL-28 cells after 48 hrs by SRB assay; type: functional; conditions: SK-MEL-28, 48 h
A498 = assay: Cytotoxicity against human A498 cells after 48 hrs by SRB assay; type: functional; conditions: A498, 48 h
HL-60 = assay: Cytotoxicity against human HL60 cells after 48 hrs by SRB assay; type: functional; conditions: HL-60, 48 h
ACHN = assay: Cytotoxicity against human ACHN cells after 48 hrs by SRB assay; type: functional
U-251 = assay: Cytotoxicity against human U251 cells after 48 hrs by SRB assay; type: functional; conditions: U-251, 48 h, read-out: pGI50 (converted)
HOP-92 = assay: Cytotoxicity against human HOP92 cells after 48 hrs by SRB assay; type: functional; conditions: HOP-92, 48 h
RXF 393 = assay: Cytotoxicity against human RXF393 cells after 48 hrs by SRB assay; type: functional; conditions: RXF 393, 48 h
PC-3 = assay: Cytotoxicity against human PC3 cells after 48 hrs by SRB assay; type: functional; conditions: PC-3, 48 h
HT-29 = assay: Cytotoxicity against human HT-29 cells after 48 hrs by SRB assay; type: functional; conditions: HT-29, 48 h
MDA-MB-231 = assay: Cytotoxicity against human MDA-MB-231 cells after 48 hrs by SRB assay; type: functional; conditions: MDA-MB-231, 48 h
SK-MEL-5 = assay: Cytotoxicity against human SK-MEL-5 cells after 48 hrs by SRB assay; type: functional; conditions: SK-MEL-5, 48 h, read-out: pGI50 (converted)
KM12 = assay: Cytotoxicity against human KM12 cells after 48 hrs by SRB assay; type: functional; conditions: KM12, 48 h
Malme-3M = assay: Cytotoxicity against human MALME-3M cells after 48 hrs by SRB assay; type: functional
SR = assay: Cytotoxicity against human SR cells after 48 hrs by SRB assay; type: functional
HCT-116 = assay: Cytotoxicity against human HCT116 cells after 48 hrs by SRB assay; type: functional; conditions: HCT-116, 48 h
SNB-19 = assay: Cytotoxicity against human SNB19 cells after 48 hrs by SRB assay; type: functional; conditions: SNB-19, 48 h
SF-268 = assay: Cytotoxicity against human SF268 cells after 48 hrs by SRB assay; type: functional; conditions: SF-268, 48 h
SW-620 = assay: Cytotoxicity against human SW620 cells after 48 hrs by SRB assay; type: functional; conditions: SW-620, 48 h
NCI-H226 = assay: Cytotoxicity against human NCI-H226 cells after 48 hrs by SRB assay; type: functional; conditions: NCI-H226, 48 h
COLO 205 [9] = assay: Cytotoxicity against human COLO205 cells after 72 hrs by MTT assay; type: functional; conditions: COLO 205, 72 h
LOX IMVI = assay: Cytotoxicity against human LOXIMVI cells after 48 hrs by SRB assay; type: functional
CCRF-CEM = assay: Cytotoxicity against human CCRF-CEM cells after 48 hrs by SRB assay; type: functional

Compound: COc1cccc2c1C(=O)c1c(O)c3c(c(O)c1C2=O)C[C@@](O)(C(=O)CO)C[C@@H]3O[C@H]1C[C@H](N)[C@H](O)[C@H](C)O1
- TGI (SK-MEL-2 [1]): Active

Compound: CO[C@H](C(=O)C(C)=O)[C@@H]1Cc2cc3cc(O[C@H]4C[C@@H](O[C@H]5C[C@@H](O)[C@H](O)[C@@H](C)O5)[C@H](O)[C@@H](C)O4)c(C)c(O)c3c(O)c2C(=O)[C@H]1O[C@H]1C[C@@H](O[C@H]2C[C@@H](O[C@H]3C[C@H](O)[C@H](O)[C@@H](C)O3)[C@H](O)[C@@H](C)O2)[C@H](O)[C@@H](C)O1
- GI50 (K562): 19.5 nM
- GI50 (EKVX): 91.2 nM
- GI50 (IGROV-1): 23.4 nM
- GI50 (TK-10): 85.1 nM
- GI50 (OVCAR-8): 25.7 nM
- GI50 (HCT-15): 182 nM
- GI50 (CAKI-1): 126 nM
- GI50 (UACC-257): 58.9 nM
- GI50 (SNB-75): 11 nM
- GI50 (NCI-H460): 17.8 nM
- GI50 (MDA-MB-435): 25.1 nM
- GI50 (NCI-H522): 19.9 nM
- GI50 (UO-31): 126 nM
- GI50 (HCC 2998): 12.9 nM
- GI50 (SF-295): 17 nM
- GI50 (COLO 205 [2]; read-out: GI50): 32 nM
- GI50 (COLO 205 [2]; read-out: pGI50 (converted)): 30.2 nM
- GI50 (SK-MEL-2 [3]): 15.1 nM
- GI50 [4]: 1660 nM
- GI50 (SF-539): 20.9 nM
- GI50 (RPMI-8226): 15.8 nM
- GI50 (NCI-H23): 14.8 nM
- GI50 (M14): 36.3 nM
- MTD [5]: 4 mg/kg
- GI50 (OVCAR-3): 19.9 nM
- GI50 (HOP-62): 16.6 nM
- GI50 (Hs-578T): 16.2 nM
- GI50 (MOLT-4): 27.5 nM
- GI50 (UACC-62): 13.5 nM
- GI50 (BXPC-3): 300 nM
- GI50 (MCF7): 19.9 nM
- GI50 (BT-549): 13.5 nM
- GI50 [6]: 25.1 nM
- GI50 (DU-145): 25.1 nM
- GI50 (OVCAR-5): 30.9 nM
- GI50 (SK-OV-3): 25.1 nM
- GI50 (OVCAR-4): 72.4 nM
- GI50 (SN12C): 24.6 nM
- GI50 (T47D): 33.9 nM
- GI50 (A549 [7]): 24.6 nM
- GI50 (A549 [8]): 300 nM
- GI50 (MDA-MB-468): 23.4 nM
- GI50 (SK-MEL-28): 20.9 nM
- GI50 (A498): 47.9 nM
- GI50 (HL-60): 17.4 nM
- GI50 (ACHN): 74.1 nM
- GI50 (U-251): 17.4 nM
- GI50 (HOP-92): 19.9 nM
- GI50 (RXF 393): 13.5 nM
- GI50 (PC-3): 22.9 nM
- GI50 (HT-29): 24.6 nM
- GI50 (MDA-MB-231; read-out: GI50): 63 nM
- GI50 (MDA-MB-231; read-out: pGI50 (converted)): 66.1 nM
- GI50 (SK-MEL-5): 22.4 nM
- GI50 (KM12): 12.9 nM
- GI50 (Malme-3M): 34.7 nM
- GI50 (SR): 11.8 nM
- GI50 (HCT-116): 14.8 nM
- GI50 (SNB-19): 17 nM
- GI50 (SF-268): 18.6 nM
- GI50 (SW-620): 24 nM
- GI50 (NCI-H226): 34.7 nM
- GI50 (COLO 205 [9]): 300 nM
- GI50 (LOX IMVI): 13.5 nM
- GI50 (CCRF-CEM): 24 nM
